Reference: US11236044B2, “Selective inhibitors of 12(S)-lipoxygenase (12-LOX) and methods for use of the same” (THE REGENTS OF THE UNIVERSITY OF MICHIGAN, priority 2018, dated 2022)
Where two headings read alike, the source gives them in different places.

Legend:
[1] = tested on: thrombus formation in cremaster arterioles; test: Laser-induced cremaster arteriole thrombosis model; assay type: in vivo; conditions: WT mice, 3 mg/kg oral, twice a day for 2 days, versus PEG control; FIG. 4
Procedure: C57BL/6 wild-type (WT) control mice were purchased from Jackson Laboratories (Bar Harbor, Me., USA) and housed in the research facility at the University of Michigan. Compound A1 was synthesized and specifically formulated in Polyethylene Glycol 300 (PEG 300) for oral gavage dosing in mice for in vivo thrombosis and hemostasis studies. For laser-induced cremaster arteriole thrombosis model, mice were treated with compound A1 (3 mg/kg) or with PEG 300 via oral administration 2 times per day for 2 days prior to intravital microscopy studies on the third day.
Adult mice (10-12 weeks old) were anesthetized as described above and surgically prepared as described in detail, and a tracheal tube was inserted to facilitate breathing. The cremaster muscle was prepared and perfused with preheated bicarbonate-buffered saline throughout the experiment. DyLight 488-conjugated rat anti-mouse platelet GP1b8 antibody (0.1 μg/g; EMFRET Analytics) and Alexa Fluor 647-conjugated anti-fibrin (0.3 μg/g) or Alexa Flour 647 rat-anti mouse CD62P (3 μg/mouse) were administered by a jugular vein cannula prior to vascular injury. […] All captured images were analyzed for the change of fluorescent intensity over the course of thrombus formation after subtracting fluorescent background defined on an uninjured section of the vessel using the Slidebook program. […]

[2] = tested on: platelet accumulation in the lung (FcγRIIa-mediated platelet activation); test: Anti-GPIX-induced HITT model for lung thrombosis; assay type: in vivo, transgenic mice expressing the human FcγRIIa receptor; conditions: 15 mg/kg oral gavage, four hours following HITT induction, versus PEG vehicle; FIG. 5
Procedure: Adult transgenic mice (10-12 weeks old) expressing the human FcγRIIa receptor on their platelets were anesthetized as described above and were orally gavaged with 15 mg/kg of A1 or control vehicle 30-minutes prior to IV bolus injection of 0.75 mg/kg anti-GPIX to induce activation of the FcγRIIa receptor on the platelets to mimic heparin-induced thrombocytopenia and thrombosis (“HITT”) in the mouse. The anti-GPIX antibody was conjugated to DyLight 488 to visualize its binding to platelets and platelet accumulation in the lung. 4 hours post-anti-GPIX induction, the animals were sacrificed and the lungs were visualized using the Li—COR Odyssey imager.
Representative images of platelet accumulation (green) in the mouse lungs from control (PEG vehicle) and A1-treated (15 mg/kg) mice are shown in FIG. 5

[3] = Pharmacokinetic study of the inhibitors in mice blood plasma (PO and IV); assay type: in vivo; conditions: for concentration at 2 h / concentration at 4 h / concentration at 7 h: mouse, plasma, 30 mg/kg
Procedure: Pharmacokinetic Study of the Inhibitors in Mice Blood Plasma
The blood plasma concentration of compounds A1, A2, and A4 in mice was determined following per os, oral compound administration (“PO”) and intravenous (“IV”) administration
Calibration curve. The concentration range was evaluated from 2.5-5000 ng/ml for compound A2, 1-5000 ng/ml for compound A4, and 5-5000 ng/ml for compound A1. The curve was built with linear regression with weighing (1/X2). The linear regression analysis was performed by plotting the peak area ratio (y) against the concentration (x) in ng/mL.
Instrument Conditions. The LC-MS and mass spectrometry conditions for the compounds tested are shown below.
Results. The individual and average compound A1, A2, and A4 concentration-time data for IV and PO dosed groups are listed in Table 1, and graphically presented in FIG. 1.

[4] = iv, IV 30 mg/kg, n=3 (outliers excluded), read-out: Concentration in Plasma, Mean
[5] = iv, IV 30 mg/kg, read-out: Concentration in Plasma, Mouse 1
[6] = iv, IV 30 mg/kg, read-out: Concentration in Plasma, Mouse 2
[7] = iv, IV 30 mg/kg, read-out: Concentration in Plasma, Mouse 3
[8] = po, PO 30 mg/kg, n=3 (outliers excluded), read-out: Concentration in Plasma, Mean
[9] = po, PO 30 mg/kg, read-out: Concentration in Plasma, Mouse 1
[10] = po, PO 30 mg/kg, read-out: Concentration in Plasma, Mouse 2
[11] = po, PO 30 mg/kg, read-out: Concentration in Plasma, Mouse 3

COc1cccc(CNc2ccc(S(=O)(=O)Nc3cccc(Cl)c3)cc2)c1O [Compound A1, N-(3-chlorophenyl)-4-((2-hydroxy-3-methoxybenzyl)amino) benzenesulfonamide]
thrombus formation (platelet accumulation and fibrin formation) in cremaster arterioles [1]: impairs thrombus formation | thrombocytopenia and thrombosis (platelet accumulation) in mouse lungs [2]: inhibit thrombocytopenia and thrombosis in mouse lungs | Concentration in Plasma, Mouse 2 ([3]; PO 30 mg/kg, 2 h): *899.2 ng/ml | concentration at 2 h ([3]; iv, IV 30 mg/kg, 2 h, n=3 (outliers excluded), read-out: Concentration in Plasma, Mean): 77.4 ng/mL | concentration at 2 h ([3]; iv, IV 30 mg/kg, 2 h, read-out: Concentration in Plasma, Mouse 1): 69.6 ng/mL | concentration at 2 h ([3]; iv, IV 30 mg/kg, 2 h, read-out: Concentration in Plasma, Mouse 2): 124 ng/mL | concentration at 2 h ([3]; iv, IV 30 mg/kg, 2 h, read-out: Concentration in Plasma, Mouse 3): 38.8 ng/mL | concentration at 4 h [3, 4]: 29.2 ng/mL | concentration at 4 h [3, 5]: 46.4 ng/mL | concentration at 4 h [3, 6]: 20.2 ng/mL | concentration at 4 h [3, 7]: 20.9 ng/mL | concentration at 7 h [3, 4]: 16.9 ng/mL | concentration at 7 h [3, 5]: 36.5 ng/mL | concentration at 7 h [3, 6]: 5.9 ng/mL | concentration at 7 h [3, 7]: 8.3 ng/mL | concentration at 2 h ([3]; po, PO 30 mg/kg, 2 h, n=3 (outliers excluded), read-out: Concentration in Plasma, Mean): 40.4 ng/mL | concentration at 2 h ([3]; po, PO 30 mg/kg, 2 h, read-out: Concentration in Plasma, Mouse 1): 21 ng/mL | concentration at 2 h ([3]; po, PO 30 mg/kg, 2 h, read-out: Concentration in Plasma, Mouse 3): 59.7 ng/mL | concentration at 4 h [3, 8]: 52.9 ng/mL | concentration at 4 h [3, 9]: 48.9 ng/mL | concentration at 4 h [3, 10]: 89.8 ng/mL | concentration at 4 h [3, 11]: 20 ng/mL | concentration at 7 h [3, 8]: 15.2 ng/mL | concentration at 7 h [3, 9]: 12.1 ng/mL | concentration at 7 h [3, 10]: 24.1 ng/mL | concentration at 7 h [3, 11]: 9.3 ng/mL
